“Also recorded” adds a separate entry of the source.
Key:
[1] = biological target: T1, GST-tagged SIRT6 (Homo sapiens, UniProt Q8N6T7); assay: HPLC-based SIRT6 deacetylation assay with H3K9Ac peptide;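 for all read-outs here: recombinant SIRT6 incubated 30 min at 37 °C with 500 µM NAD+ and H3K9Ac peptide, deacetylated H3K9 quantified by reversed-phase HPLC-MRM peak area versus DMSO control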; type: biochemical; conditions: for inhibition at 10 µM / Inhibition % 10 µM: 10 µM compound; for inhibition at 10 µM / Activation 100 µM / inhibition at 100 µM / Inhibition % 10 µM / Inhibition % 100 µM: mean ± SD, n=3; for Activation 100 µM / inhibition at 100 µM / Inhibition % 100 µM: 100 µM compound; for Activation 100 µM: 40 µM H3K9Ac, fold per Fig. 2C legend
T1 construct: made in house; host or cells: E. coli BL21(DE3)-pRARE
T1 sequence (Q8N6T7 whole entry): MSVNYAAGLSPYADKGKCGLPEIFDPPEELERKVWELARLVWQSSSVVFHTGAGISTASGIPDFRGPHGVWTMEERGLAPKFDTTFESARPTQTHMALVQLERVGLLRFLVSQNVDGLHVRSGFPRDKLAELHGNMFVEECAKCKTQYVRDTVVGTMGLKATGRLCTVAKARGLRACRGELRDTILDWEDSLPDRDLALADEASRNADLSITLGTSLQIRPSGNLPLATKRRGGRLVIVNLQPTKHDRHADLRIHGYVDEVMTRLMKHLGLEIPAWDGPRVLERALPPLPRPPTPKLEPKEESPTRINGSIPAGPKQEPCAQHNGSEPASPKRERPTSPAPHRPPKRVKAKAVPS

[2] = biological target: T1, GST-tagged SIRT6; set-up: method as in PMID 26607666; conditions: cited from earlier work
[3] = biological target: T2, GST-SIRT6 (Homo sapiens, UniProt Q8N6T7); assay: In vitro SIRT6 deacetylation of core histones, western blot of H3K9Ac; type: biochemical; conditions: 100 µM
T2 construct: made in house; host or cells: E. coli BL21(DE3)-pRARE
T2 sequence (Q8N6T7 whole entry): as above
Experimental: Western blot analysis was carried out as previously described, with slight modifications. […] The reaction was stopped with Laemmli (sample buffer) and separated by SDS-PAGE using 10–20% gradient gels and transferred onto polyvinylidene difluoride (PVDF) membranes. H3K9 acetylation was detected with rabbit anti-acetyl H3K9 antibody followed by anti-rabbit HRP-conjugated secondary antibody. Membranes were stripped and re-probed with rabbit anti-histone H3 antibody. Chemiluminescent signal detection and image acquisition were carried out using ECL prime western blotting detection reagents.
3 μg/well of a purified recombinant GST‐SIRT6 protein, 1.25 μg purified whole chicken core histones with 500 μM NAD+ in 25 mM Tris‐HCl, pH 8.0. Analysis were repeated three times and one representative cropped blot is shown (A). Uncropped blots probed with H3K9Ac (B), H3 (C). […]

[4] = test system: SIRT6 protein expression in Caco-2 cells; assay: Immunoblotting of SIRT6 protein expression in Caco-2 cells; type: cell-based, human; conditions: 24 h; for SIRT6 expression, in words: Caco-2 cells
Experimental: (§1) After the treatment, conditions of the cells were evaluated under a light microscope (Fig. 3A). […] Full-length blots are presented in Supplementary Fig. S4.
(§2) (B) Immunoblotting analysis of SIRT6 protein. SIRT6 protein levels (MW: 39 kDa) were normalized relative to α-tubulin (MW: 50 kDa) and quantification is represented as fold change respect to control. Values are expressed as mean ± SEM of four independent experiment (*p values < 0.05; one way-ANOVA). SIRT6 expression were determined by immunoblotting (B).
(§3) Caco-2 cells (passage 30–40) were cultured in DMEM with 10% FBS, 1% nonessential amino acids, 2 mM L-glutamine, 100 units/ml of penicillin, and 100 µg/ml of streptomycin at +37 °C. Cells were cultured 14 days before the treatments. For the immunoblotting, cells were seeded on 24-well plates (1 × 10^5 cells/well).
(§4) After treatment, medium was discarded and cells were washed twice with ice-cold PBS. RIPA buffer was added to the cells and incubated for 30 min. Cell suspensions were collected and centrifuged (13,000 rpm, 20 min +4 °C). Supernatant containing the proteins were aliquoted and stored at −80 °C. Sample protein concentrations were measured with Bradford Assay (Bio-Rad DC^TM Protein Assay).
Immunoblotting was performed according to standard protocols from four independent experiments. Briefly, protein samples (18 µg/sample) were separated by SDS-PAGE using 10–20% gradient gels and transferred onto PVDF membranes. Membranes were blocked in 3% non-fat dry milk and further incubated with primary rabbit anti- FoxO3α (1:2000), anti-GLUT1 (1:1000), anti-H3, anti-SIRT6 (1:2000), anti-Twist (1:2000) anti-α-tubulin (1:8000) antibodies overnight at +4 °C. HRP-conjugated secondary antibodies (goat anti-rabbit, goat anti-mouse) were incubated for 1 hour at room temperature and proteins were detected using ELC prime western blotting system. Densitometric analysis of protein bands was carried out using ImageJ 1.32 software and the data were normalized by α-tubulin (loading control).

[5] = test system: GLUT1 protein expression in Caco-2 cells; assay: Immunoblotting of GLUT1 protein expression in Caco-2 cells; type: cell-based, human; conditions: Caco-2, 24 h, 100 µM
Experimental: as §1
(§5) FoxO3α, Twist1 and GLUT1 expression were quantified and normalised with α-tubulin or H3. Data represent the mean ± SEM of three independent experiments,*p < 0.05, **p < 0.01 and ***p < 0.001 between the indicated groups.
as §3, §4
(§6) Immunoblotting was performed according to standard protocols from four independent experiments. […] HRP-conjugated secondary antibodies (goat anti-rabbit, goat anti-mouse) were incubated for 1 hour at room temperature and proteins were detected using ELC prime western blotting system. […]

[6] = test system: FoxO3α protein expression in Caco-2 cells; assay: Immunoblotting of FoxO3α protein expression in Caco-2 cells; type: cell-based, human; conditions: Caco-2, 24 h, 50 and 100 µM
Experimental: as §1, §5, §3, §4, §6

[7] = test system: Caco-2 cells; assay: Light microscopy of Caco-2 cells after treatment; type: cell-based, human; conditions: 200 µM
Experimental: as §1, §2, §3

[8] = test system: Twist1 protein expression in Caco-2 cells; assay: Immunoblotting of Twist1 protein expression in Caco-2 cells; type: cell-based, human; conditions: Caco-2, 24 h, 100 µM
Experimental: as §1, §5, §3, §4, §6

| SMILES | inhibition at 10 µM [1] | Activation 100 µM [1] | inhibition at 100 µM [1] | SIRT6 inhibition, in words [1] | other results |
| --- | --- | --- | --- | --- | --- |
| Oc1cc(O)c2c(c1)O[C@@H](c1cc(O)c(O)c(O)c1)[C@H](O)C2 [Compound 3, (−)-Gallocatechin] | 17 ± 0.8% | 0.2 ± 0.01 fold | 23 ± 1% | weak inhibitor | – |
| O=C(O[C@@H]1Cc2c(O)cc(O)cc2O[C@H]1c1ccc(O)c(O)c1)c1cc(O)c(O)c(O)c1 [Compound 4, (−)-Catechin gallate] | 62 ± 0.7% | 0.1 ± 0.03 fold | – | – | – |
| O=C(O[C@@H]1Cc2c(O)cc(O)cc2O[C@H]1c1cc(O)c(O)c(O)c1)c1cc(O)c(O)c(O)c1 [Compound 5, (−)-Gallocatechin gallate] | 79 ± 0.5% | 0.01 ± 0.01 fold | – | – | – |
| O=C(O[C@@H]1Cc2c(O)cc(O)cc2O[C@@H]1c1ccc(O)c(O)c1)c1cc(O)c(O)c(O)c1 [Compound 8, (−)-Epicatechin gallate] | 15 ± 0.9% | 0.1 ± 0.01 fold | 60 ± 3.6% | – | – |
| O=C(O[C@@H]1Cc2c(O)cc(O)cc2O[C@@H]1c1cc(O)c(O)c(O)c1)c1cc(O)c(O)c(O)c1 [Compound 9, (−)-Epigallocatechin gallate] | 10 ± 1.4% | 0.8 ± 0.04 fold | 42 ± 1.9% | moderate inhibition | – |
| O=C1C[C@@H](c2ccc(O)cc2)Oc2cc(O)cc(O)c21 [Compound 10, Naringenin] | 8.3 ± 1.1% | 1.1 ± 0.05 fold | 23 ± 1.5% | did not improve the inhibitory activity towards SIRT6 compared to compound 1 | – |
| O=C1C[C@@H](c2ccc(O)c(O)c2)Oc2cc(O)cc(O)c21 [Compound 11, Eriodictoyl] | – | 1.1 fold | – | did not improve the inhibitory activity towards SIRT6 compared to compound 1 | Inhibition % 10 µM [1]: 19 ± 2.2%; Inhibition % 100 µM [1]: 27 ± 1.5% |
| O=c1c(O)c(-c2ccc(O)cc2)oc2cc(O)cc(O)c12 [Compound 14, Kaempferol] | 40 ± 0.8% | 2.2 ± 0.1 fold | 24 ± 1.7% | inhibitors as well as activators depending on the concentration | Maximal activation (fold) ([1]; at saturating concentrations of compound): 3.0 fold |
| O=c1c(O)c(-c2ccc(O)c(O)c2)oc2cc(O)cc(O)c12 [Compound 15, Quercetin] | 27 ± 0.4% | 1.5 ± 0.1 fold | 40 ± 3% | inhibitors as well as activators depending on the concentration | Modulation of SIRT6 deacetylation activity, in words [2]: increase SIRT6 deacetylation activity at high concentrations, while also inhibiting deacetylation activity at low concentrations |
| NC(=O)c1cccnc1 [Compound 21, Nicotinamide, reference compound] | – | – | – | – | inhibition at 1000 µM [1]: 58 ± 1.3% |
| O=C(O)c1cc(O)c(O)c(O)c1 [Compound 22, Gallic Acid] | – | 1.4 ± 0.04 fold | 14 ± 1.2% | – | SIRT6 activation, in words [1]: increased slightly SIRT6 activation |
| COc1cc(CCC(=O)O)ccc1O [Compound 23, 3-(4-Hydroxy-3-methoxyphenyl)propionic acid] | – | 1.8 ± 0.05 fold | -12 ± 1.1% | – | SIRT6 activation, in words [1]: increased slightly SIRT6 activation |
| O=C(O)C=Cc1ccc(O)cc1 [Compound 24, p-Coumaric acid] | – | 0.6 ± 0.1 fold | 8.5 ± 1.2% | inactive | – |
| O=C(O)/C=C/c1ccc(O)c(O)c1 [Compound 25, Caffeic Acid] | – | 1.0 ± 0.01 fold | -5.9 ± 0.2% | inactive | – |
| COc1cc(/C=C/C(=O)O)ccc1O [Compound 26, trans-Ferulic acid] | – | 0.9 ± 0.6 fold | – | inactive | Inhibition % 100 µM [1]: -8.6 ± 0.3% |
| COc1cc(/C=C/C(=O)O)cc(OC)c1O [Compound 27, Sinapic Acid] | – | 0.6 ± 0.2 fold | – | inactive | Inhibition % 100 µM [1]: 8.0 ± 0.9% |

Continued, in another order:

| inhibition at 10 µM [1] | Activation 100 µM [1] | inhibition at 100 µM [1] | SIRT6 inhibition, in words [1] | SMILES | other results |
| --- | --- | --- | --- | --- | --- |
| 17 ± 1.6% | 0.8 ± 0.02 fold | 26% | – | Oc1cc(O)c2c(c1)O[C@H](c1ccc(O)c(O)c1)[C@@H](O)C2 [Compound 1, (+)-Catechin] | – |
| 25 ± 0.8% | 0.4 ± 0.04 fold | 54% | – | Oc1cc(O)c2c(c1)O[C@@H](c1ccc(O)c(O)c1)[C@H](O)C2 [Compound 2, (−)-Catechin] | – |
| – | – | 10 ± 0.1% | – | Oc1cc(O)c2c(c1)O[C@H](c1ccc(O)c(O)c1)[C@H](O)C2 [Compound 6, (−)-Epicatechin] | – |
| – | 0.9 ± 0.01 fold | 1 ± 0.6% | – | O=c1cc(-c2ccc(O)cc2)oc2cc(O)cc(O)c12 [Compound 12, Apigenin] | SIRT6 activation, in words [1]: inactive |
| 24 ± 1.8% | 1.2 ± 0.04 fold | 29 ± 0.3% | weak inhibitor | O=c1cc(-c2ccc(O)c(O)c2)oc2cc(O)cc(O)c12 [Compound 13, Luteolin] | Modulation of SIRT6 deacetylation activity, in words [2]: increase SIRT6 deacetylation activity at high concentrations, while also inhibiting deacetylation activity at low concentrations |
| – | – | 0% | – | O=c1c(O)c(-c2cc(O)c(O)c(O)c2)oc2cc(O)cc(O)c12 [Compound 16, Myricetin] | – |
| – | 2.6 ± 0.1 fold | 0% | – | Oc1cc(O)c2cc(O)c(-c3ccc(O)c(O)c3)[o+]c2c1 [Compound 17, Cyanidin] | SIRT6 activation, in words [1]: increase in deacetylase activity; Increase of deacetylation activity (H3K9Ac on core histones) [3]: ~2.5 fold; SIRT6 expression up-regulation ([4]; Caco-2, 50–100 µM, relative to control): 3.5 fold; SIRT6 expression, in words [4]: effective in a dose-dependent manner; SIRT6 expression, in words ([4]; listed as Cyanidin): significantly increased SIRT6 expression; GLUT1 expression, in words [5]: downregulated; FoxO3α protein expression, in words [6]: enhanced the protein expression of FOXO3 significantly; Precipitation in cell culture medium [7]: precipitated out of solution; Twist1 expression, in words [8]: downregulated |
| – | 2.2 ± 0.1 fold | 0% | – | Oc1cc(O)c2cc(O)c(-c3cc(O)c(O)c(O)c3)[o+]c2c1 [Compound 18, Delphinidin] | SIRT6 activation, in words [1]: increase in deacetylase activity; also recorded: weaker activity against SIRT6 than compound 17; Increase of deacetylation activity (H3K9Ac on core histones) [3]: ~2.5 fold |
| 1.8 ± 0.3% | 0.7 ± 0.2 fold | 9.6 ± 1.4% | weak SIRT6 inhibitors | O=c1c(-c2ccc(O)cc2)coc2cc(O)cc(O)c12 [Compound 19, Genistein] | – |
| – | 1.3 ± 0.02 fold | – | weak SIRT6 inhibitors | COc1ccc(-c2coc3cc(O)cc(O)c3c2=O)cc1 [Compound 20, Biochanin A] | SIRT6 activation, in words [1]: able to activate deacetylation of SIRT6; Inhibition % 10 µM [1]: 13 ± 0.5%; Inhibition % 100 µM [1]: 24 ± 0.9% |

Source: publication PMC5841289, “Natural polyphenols as sirtuin 6 modulators” (Scientific Reports, 2018)
